According to the NIST ThermoML archive (doi:10.1016/j.jct.2018.01.024):

Test: mn = molality of the nth substance listed, in mol/kg
Conditions: Liquid

NC(N)=O [urea] + O
mass density [kg/m3]
Conditions	288.15 K	298.15 K	308.15 K	323.15 K	333.15 K
101 kPa, Vibrating tube method, m1 = 0.093	–	998.52	995.45	989.4	984.53
101 kPa, Vibrating tube method, m1 = 0.1063	–	998.73	995.65	989.59	984.72
101 kPa, Vibrating tube method, m1 = 0.141	–	999.27	996.18	990.1	985.22
101 kPa, Vibrating tube method, m1 = 0.152	–	999.45	996.35	990.26	985.38
101 kPa, Vibrating tube method, m1 = 0.1809	–	999.9	996.79	990.68	985.79
101 kPa, Vibrating tube method, m1 = 0.2423	–	1000.86	997.71	991.57	986.66
101 kPa, Vibrating tube method, m1 = 0.4362	–	1003.84	1000.59	994.33	989.38
101 kPa, Vibrating tube method, m1 = 0.5644	–	1005.78	1002.47	996.13	991.15
101 kPa, Vibrating tube method, m1 = 1.008	–	1012.3	1008.78	1002.19	997.11
101 kPa, Vibrating tube method, m1 = 1.609	–	1020.67	1016.91	1010.03	1004.81
101 kPa, Vibrating tube method, m1 = 2.505	–	1032.29	1028.21	1020.95	1015.53
101 kPa, Vibrating tube method, m1 = 3.376	–	1042.7	1038.34	1030.77	1025.17
101 kPa, Vibrating tube method, m1 = 4.33	–	1053.2	1048.55	1040.72	1034.98
101 kPa, Vibrating tube method, m1 = 5.39	–	1063.84	1058.96	1050.87	1044.98
101 kPa, Vibrating tube method, m1 = 8	–	1086.63	1081.22	1072.6	1066.38
101 kPa, Vibrating tube method, m1 = 9.9	–	1100.56	1094.97	1086.08	1079.64
101 kPa, Vibrating tube method, m1 = 12.8	–	1118.82	1112.9	1103.59	1096.9
10000 kPa, Constant-volume piezometry, m1 = 0.1809	–	1004.31	1001.1	994.94	–
10000 kPa, Constant-volume piezometry, m1 = 0.4362	–	1008.22	1004.89	998.57	–
10000 kPa, Constant-volume piezometry, m1 = 0.5644	–	1010.14	1006.76	1000.36	–
10000 kPa, Constant-volume piezometry, m1 = 1.609	–	1024.95	1021.13	1014.19	–
10000 kPa, Constant-volume piezometry, m1 = 2.505	–	1036.5	1032.37	1025.05	–
10000 kPa, Constant-volume piezometry, m1 = 3.376	–	1046.86	1042.44	1034.82	–
10000 kPa, Constant-volume piezometry, m1 = 5.39	–	1067.88	1062.95	1054.83	–
10000 kPa, Constant-volume piezometry, m1 = 8	–	1090.56	1085.13	1076.49	–
10000 kPa, Constant-volume piezometry, m1 = 10.99	–	1111.68	1105.95	1096.87	–
10000 kPa, Constant-volume piezometry, m1 = 12.8	–	1122.59	1116.69	1107.38	–
25000 kPa, Constant-volume piezometry, m1 = 0.1809	–	1010.8	1007.46	1001.22	–
25000 kPa, Constant-volume piezometry, m1 = 0.4362	–	1014.67	1011.22	1004.83	–
25000 kPa, Constant-volume piezometry, m1 = 0.5644	–	1016.58	1013.08	1006.62	–
25000 kPa, Constant-volume piezometry, m1 = 1.609	–	1031.23	1027.31	1020.35	–
25000 kPa, Constant-volume piezometry, m1 = 2.505	–	1042.68	1038.45	1031.14	–
25000 kPa, Constant-volume piezometry, m1 = 3.376	–	1052.93	1048.43	1040.83	–
25000 kPa, Constant-volume piezometry, m1 = 5.39	–	1073.78	1068.78	1060.7	–
25000 kPa, Constant-volume piezometry, m1 = 8	–	1096.33	1090.83	1082.18	–
25000 kPa, Constant-volume piezometry, m1 = 10.99	–	1117.29	1111.57	1102.45	–
25000 kPa, Constant-volume piezometry, m1 = 12.8	–	1128.17	1122.24	1112.95	–
50000 kPa, Constant-volume piezometry, m1 = 0.1809	–	1021.19	1017.66	1011.26	–
50000 kPa, Constant-volume piezometry, m1 = 0.4362	–	1025	1021.35	1014.82	–
50000 kPa, Constant-volume piezometry, m1 = 0.5644	–	1026.87	1023.19	1016.57	–
50000 kPa, Constant-volume piezometry, m1 = 1.609	–	1041.28	1037.21	1030.14	–
50000 kPa, Constant-volume piezometry, m1 = 2.505	–	1052.51	1048.14	1040.78	–
50000 kPa, Constant-volume piezometry, m1 = 3.376	–	1062.57	1057.95	1050.36	–
50000 kPa, Constant-volume piezometry, m1 = 5.39	–	1083.08	1078.02	1069.99	–
50000 kPa, Constant-volume piezometry, m1 = 8	–	1105.37	1099.83	1091.23	–
50000 kPa, Constant-volume piezometry, m1 = 10.99	–	1126.18	1120.31	1111.32	–
50000 kPa, Constant-volume piezometry, m1 = 12.8	–	1136.9	1130.92	1121.73	–
75000 kPa, Constant-volume piezometry, m1 = 0.1809	–	1031.09	1027.35	1020.8	–
75000 kPa, Constant-volume piezometry, m1 = 0.4362	–	1034.82	1030.99	1024.31	–
75000 kPa, Constant-volume piezometry, m1 = 0.5644	–	1036.66	1032.8	1026.04	–
75000 kPa, Constant-volume piezometry, m1 = 1.609	–	1050.81	1046.61	1039.38	–
75000 kPa, Constant-volume piezometry, m1 = 2.505	–	1061.84	1057.37	1049.87	–
75000 kPa, Constant-volume piezometry, m1 = 3.376	–	1071.73	1067.04	1059.32	–
75000 kPa, Constant-volume piezometry, m1 = 5.39	–	1091.95	1086.84	1078.73	–
75000 kPa, Constant-volume piezometry, m1 = 8	–	1113.92	1108.4	1099.84	–
75000 kPa, Constant-volume piezometry, m1 = 10.99	–	1134.57	1128.64	1119.74	–
75000 kPa, Constant-volume piezometry, m1 = 12.8	–	1145.19	1139.16	1130.01	–
100000 kPa, Constant-volume piezometry, m1 = 0.1809	–	1040.52	1036.61	1029.92	–
100000 kPa, Constant-volume piezometry, m1 = 0.4362	–	1044.19	1040.2	1033.37	–
100000 kPa, Constant-volume piezometry, m1 = 0.5644	1049.66	1046	1041.98	1035.08	–
100000 kPa, Constant-volume piezometry, m1 = 1.609	1063.93	1059.92	1055.64	1048.25	–
100000 kPa, Constant-volume piezometry, m1 = 2.505	1075.04	1070.84	1066.32	1058.62	–
100000 kPa, Constant-volume piezometry, m1 = 3.376	1085.01	1080.63	1075.91	1067.97	–
100000 kPa, Constant-volume piezometry, m1 = 5.39	1105.48	1100.6	1095.48	1087.2	–
100000 kPa, Constant-volume piezometry, m1 = 8	1127.8	1122.4	1116.79	1108.07	–
100000 kPa, Constant-volume piezometry, m1 = 10.99	1148.53	1142.75	1136.92	1127.82	–
100000 kPa, Constant-volume piezometry, m1 = 12.8	1159.2	1153.24	1147.3	1138.03	–
